Assay results as given in PubChem BioAssay AID1996.
In brackets after ≈: the same amount, converted by molar mass.

settings: buffer; pH 7.4; 200.0 µM

Point of comparison: `COC(=O)c1ccc(-n2c(C)cc(C(=O)COC(=O)C3=COCCO3)c2C)cc1`, solubility kinetic 3.7 µg/mL (≈ 9.26 µM). Against it:
- Cc1c(C(=O)N2CCN(c3ncccn3)CC2)oc2ccc(F)cc12 — 2.6-fold higher, 9.5 µg/mL (≈ 27.9 µM)
- C/C(=N\O)c1cc(Cl)cc(Cl)c1O — 8.2-fold higher, 30.5 µg/mL (≈ 139 µM)
- CN1CCN(C(=O)/C=C/c2c(F)cccc2Cl)CC1 — higher, > 42.4 µg/mL
- O=C(COC(=O)c1ccc(S(=O)(=O)NCc2ccco2)cc1)NCc1ccccc1 — 2-fold higher, 7.4 µg/mL (≈ 17.3 µM)
- CC1CCCCC1NC(=O)c1ccncc1 (centres undefined) — higher, > 32.7 µg/mL
- COc1cc(SC)ccc1C(=O)NC1CCCc2ccccc21 (centres undefined) — lower, < 0.7 µg/mL
- COc1cccc2c1OC1(CCN(C(C)C)CC1)N1N=C(c3cccnc3)CC21 (centres undefined) — higher, > 58.9 µg/mL
- CSc1nc2c(c(=O)[nH]c(=O)n2C)n1CCCc1ccccc1 — 6.5-fold higher, 24 µg/mL (≈ 72.6 µM)
- Cc1ccc(NC(=O)N2CCCC2c2cccs2)cc1 (centres undefined) — higher, > 43 µg/mL
- Cc1[nH]c(=O)c(C#N)c(C)c1CCC(=O)NCc1ccc(Cl)cc1 — higher, > 51.6 µg/mL
- Cc1ccc(NC(=O)C(C)N2C(=O)c3ccccc3C2=O)c(C)c1 (centres undefined) — 8-fold higher, 29.7 µg/mL (≈ 92.1 µM)
- CSc1ccccc1NC(=O)CCn1c(=O)oc2ccccc21 — higher, > 49.3 µg/mL
- Cc1c2c(n3c(nc4ccccc43)c1C#N)N(CCCN(C)C)CC2 — higher, > 50 µg/mL
- O=C(NC12CC3CC(CC(C3)C1)C2)N1CCN(C2CCCCC2)CC1 — 11-fold higher, 42.4 µg/mL (≈ 123 µM)
- CNS(=O)(=O)c1cc2c3c(cccc3c1)C(=O)NC2=O — 1.7-fold higher, 6.3 µg/mL (≈ 21.7 µM)
- CSc1cccc(-n2ccc(=O)c(C)c2C)c1 — higher, > 36.8 µg/mL
- COc1ccc(CNc2ccccn2)c(O)c1 — higher, > 34.5 µg/mL
- COC(=O)c1ccc(C(=O)OC)c(NC(=O)c2cccnc2)c1 — 1.6-fold lower, 2.3 µg/mL (≈ 7.32 µM)
- Cc1csc(SCC(=O)Nc2ccc(F)cc2Cl)n1 — higher, > 47.5 µg/mL
- N#Cc1sc(NCc2cccc(Cl)c2)nc1Cl — 1.5-fold lower, 2.4 µg/mL (≈ 8.45 µM)
- c1ccc(CCN2CCC3(CC2)OCCO3)cc1 — 7.9-fold higher, 29.2 µg/mL (≈ 118 µM)
- O=C(CCN1C(=O)c2ccccc2C1=O)Nc1cccc(O)c1 — higher, > 46.5 µg/mL
- Cc1cc(NC(=O)COC(=O)c2c(C)c(C)c(C)c(C)c2C)no1 — 1.6-fold lower, 2.3 µg/mL (≈ 6.96 µM)
- COc1ccc(N(C(C)=O)c2nc3ccccc3[nH]2)cc1 — 10-fold higher, 38.2 µg/mL (≈ 136 µM)
- CC(C)(C)OC(=O)N1CCC(CNC(=O)c2ccc(F)cc2F)CC1 — 14-fold higher, 51 µg/mL (≈ 144 µM)
- CN1CCOCCOc2ccccc2OCCOCC1 — higher, > 42.2 µg/mL
- O=C(COC(=O)c1ccc(Cl)nc1)NCc1ccc(F)cc1 — 3.9-fold higher, 14.3 µg/mL (≈ 44.3 µM)
- Cc1ccc(C)c(S(=O)(=O)NCCN2CCOCC2)c1.Cl — higher, > 50.2 µg/mL
- CC(C)Cc1ccc(C(C)C(N)=Nc2ccc(O)cc2)cc1.Cl (centres undefined) — higher, > 49.9 µg/mL
- COc1ccc(CNC(=O)c2cccnc2)cc1 — higher, > 36.3 µg/mL
- N=C1C(c2nc3ccccc3s2)=C(O)CN1C1CCC(O)CC1 (centres undefined) — within 1.5-fold, 5.1 µg/mL (≈ 15.5 µM)
- CCN(CC)C(=O)COc1c(-c2ccco2)oc2ccccc2c1=O — higher, > 51.2 µg/mL
- COCCCn1c(SCC(=O)N2CCOCC2)nc2ccccc2c1=O — 14-fold higher, 52.2 µg/mL (≈ 138 µM)
- CCCCN(C)CCNC(=O)C(NC(=O)C1CCC(C)CC1)C(C)C (centres undefined) — higher, > 53 µg/mL
- Oc1ccc(-c2cnc(-c3ccc(O)cc3)nc2)cc1 — 2.2-fold lower, 1.7 µg/mL (≈ 6.43 µM)
- COc1ccc(NC(=S)Nc2cccc(C)n2)cc1 — lower, < 0.2 µg/mL
- Cc1ccc(C(=O)NC(C(=O)Nc2ccccc2)c2ccccc2)cc1 (centres undefined) — 3.7-fold lower, 1 µg/mL (≈ 2.9 µM)
- Cc1ccc(-c2nc(C(=O)O)cs2)cc1 — 8-fold higher, 29.5 µg/mL (≈ 135 µM)
- CCOc1ccc(N2C=Nc3ccc(OCC)cc3C2)cc1 — 3.1-fold higher, 11.6 µg/mL (≈ 39.1 µM)
- COc1ccc(C(=O)CCC(=O)Nc2ccc(Cl)cc2)cc1 — lower, < 0.7 µg/mL
- CC1CN(C(=S)Nc2ccccc2F)CC(C)O1 (centres undefined) — higher, > 40.3 µg/mL
- O=c1[nH]c(O)c(C=Nc2cccc(F)c2)c(=O)[nH]1 — within 1.5-fold, 4.8 µg/mL (≈ 19.3 µM)
- CC(O)c1nc2ccccc2n1C(C)c1ccccc1 (centres undefined) — higher, > 40 µg/mL
- C[C@H](N)c1nnc(SCC(N)=O)o1.Cl — higher, > 35.8 µg/mL
- CCCN(CCO)C1CCN(CCc2ccccc2)CC1 — 7.4-fold higher, 27.4 µg/mL (≈ 94.3 µM)
- Cn1c(=O)n(C)c2cc(NC(=O)c3ccc(F)cc3)ccc21 — 4.2-fold higher, 15.5 µg/mL (≈ 51.8 µM)
- CC(=O)N/C(=C\c1ccc(C)o1)C(=O)NCc1ccccc1 — higher, > 44.8 µg/mL
- COc1ccc(S(=O)(=O)NCC2CCCO2)cc1Cl (centres undefined) — 9.2-fold higher, 34.2 µg/mL (≈ 112 µM)
- COc1ccc(NCC(O)Cn2c(C)c(C)c3ccccc32)cc1 (centres undefined) — 2.8-fold higher, 10.2 µg/mL (≈ 31.4 µM)
- N#Cc1ccc(OCC(=O)Nc2ccc3[nH]c(=O)[nH]c3c2)cc1 — 2-fold higher, 7.3 µg/mL (≈ 23.7 µM)
- Cc1nnc(NC(=O)C(C)Sc2nnc(-c3ccco3)n2C)s1 (centres undefined) — higher, > 52.6 µg/mL
- O=[N+]([O-])c1cccc2c3c([nH]c12)CCCC3 — lower, < 0.2 µg/mL
- NC(=O)c1ccc(Nc2ccc3c(c2)CCC3)c([N+](=O)[O-])c1 — within 1.5-fold, 2.6 µg/mL (≈ 8.74 µM)
- CCCCN(CC)Cc1c(O)ccc2c(-c3ccccc3)cc(=O)oc12 — 9.8-fold higher, 36.1 µg/mL (≈ 103 µM)
- NC(=O)c1cc([N+](=O)[O-])ccc1N1CCN(Cc2ccccc2)CC1 — 6.2-fold higher, 23 µg/mL (≈ 67.6 µM)
- Cc1cc(NC(=O)Cn2cnc3sc(C)c(C)c3c2=O)no1 — 4.7-fold higher, 17.3 µg/mL (≈ 54.3 µM)
- Cc1cccc(C)c1NC(=O)CN1C(=O)NC(C)(C2CC2)C1=O (centres undefined) — higher, > 47.3 µg/mL
- Nc1nc(-c2nonc2N)no1 — higher, > 25.2 µg/mL
